Like-named read-outs stand apart in the source and are kept apart here. Marks after values point to notes of the source that are not given here.
Experiments:
[1] = Caspofungin plasma pharmacokinetics in anaesthetised, ventilated pigs (shock vs control); type: in vivo; conditions: pig, 70 mg one-hour iv infusion; for level at 4 h / AUC(0-t): iv, 70 mg; for level at 4 h: four hours after start of infusion, read-out: Cp (caspofungin plasma concentration at four hours); for AUC(0-t): unit as printed in abstract, read-out: area under curve (AUC) from zero to four hours
Procedure: (§1) In the shock group (n = 12), the animals were bled through the carotid catheter (Figure 1). Blood withdrawal was started at a rate of 0.8 to 1 mL/kg/minute and continued until all three of the following end points were achieved: MAP of 40 to 45 mmHg, decrease in CI greater than 40% and SVO2 lower than 30%. End points were maintained for a period of 120 minutes by means of further bleeding. During the four-hour resuscitation period, the animals received isotonic saline at a rate of 2 mL/kg/minute. The infusions were stopped when the CI reached 90% of the baseline value and SVO2 was above 50%, and the infusions were then adjusted to keep these parameters constant until the animals were killed. At the beginning of the resuscitation period, the animals received a one-hour intravenous infusion of 70 mg of caspofungin acetate (Cancidas; Merck Sharp & Dohme-Chibret, Paris, France) diluted in 50 mL of saline, which was injected into the right atrium through the proximal lumen of the pulmonary arterial catheter via a pump-driven syringe. A second group of animals (n = 16) used as controls was anaesthetised and ventilated, but they were not subjected to bleeding and fluid loading. These animals were also killed four hours after the start of the caspofungin infusion.
(§2) EDTA-blood samples were drawn through a dedicated arterial catheter just before and 15, 30, 60 and 90 minutes and 2 hours, 3 hours and 4 hours after the caspofungin infusions were started in both groups. Then the animals were immediately killed, and lung tissue samples (2 cm × 2 cm × 2 cm) were surgically removed from nondependent parts of both the lower and upper lobes after sternotomy. Plasma was obtained by blood centrifugation at 1,500 g for 15 minutes. Plasma and lung samples were immediately stored at -80°C. The remaining lung tissues were used for the determination of extravascular lung water indexed to body weight (EVLWI) by using a gravimetric method as previously described. Caspofungin acetate was kindly provided by Merck Sharp & Dohme-Chibret. Plasma and lung caspofungin concentrations were determined by using a validated high-performance liquid chromatography method with fluorescence detection after a solid-phase extraction (Bond Elut™ column; Agilent Technologies, Santa Clara, CA, USA). Caspofungin and the internal standard (IS) propranolol were separated on a LiChrospher column (100 RP-8e (5 μm); Merck Chemicals KGaA, Darmstadt, Germany) using a mobile phase consisting of acetonitrile and 0.1% trifluoroacetic acid buffer (200:300 vol/vol) at a flow rate of 1 mL/minute. The retention times were 6 and 22 minutes for IS and caspofungin, respectively. The linearity range was 0.3 to 7.5 mg/L (r^2 > 0.998). The lower limit of quantification, defined as the lowest concentration that could be determined with a relative error and precision (relative standard deviation) less than 20%, was 0.3 μg/mL. Intraday and interday levels of interassay precision were 1.91% and 4.84% (0.5 μg/mL), 6.94% and 10.4% (3 μg/mL) and 7.84% and 12% (5 μg/mL) for serum samples. The maximal concentration (Cmax) was measured at the end of the infusion.
(§3) The AUC from zero to four hours (AUC0→4 hours) was determined using the trapezoidal rule. The concentration vs time data for both groups were modelled using the population approach method implemented in Monolix version 3.1 release 2 software. A two-compartment mammillary model was developed and parameterised in terms of central volume of distribution of caspofungin (V1) and elimination clearance of caspofungin (CL), peripheral volume of distribution of caspofungin (V2) and intercompartmental clearance of caspofungin (Q). The total apparent volume of distribution of caspofungin (Vd) was calculated as V1 + V2. The interindividual variability (ω) for each parameter and the residual variability of the model (σ) were estimated.

[2] = Lung tissue caspofungin concentration and tissue-to-plasma ratio in pigs; type: in vivo; conditions: pig
Procedure: as §1
as §2, with “Intraday and interday levels of interassay precision were 1.91% and 4.84% (0.5 μg/mL), 6.94% and 10.4% (3 μg/mL) and 7.84% and 12% (5 μg/mL) for serum samples.” left out
Lung samples were weighed (200 ± 150 mg), homogenised with a 1.5-mL saline solution, ground for 15 minutes and centrifuged twice at 10,000 rpm for 10 minutes. […] Lung caspofungin concentrations (Ct) were determined four hours after starting the caspofungin infusion and are expressed as micrograms per gram of lung tissue. The tissue-to-plasma ratio for each group was calculated as R = (Ct/Cp) × 100, where Cp is the caspofungin plasma concentration at four hours.

[3] = Two-compartment population pharmacokinetic analysis (Monolix) of plasma caspofungin in pigs; type: in vivo; conditions: pig; for Q (intercompartmental clearance) / V1 (central volume of distribution) / V2 (peripheral volume of distribution) / clearance: two-compartment population estimate; for clearance: 70 mg one-hour iv infusion, read-out: CL (central elimination clearance) (converted)
Procedure: as §3

[4] = healthy humans, single dose of 70 mg, cited from earlier work
Procedure: In the early clinical development program for caspofungin, a target concentration of 1 μg/mL was used as a guide for concentrations likely to be efficacious. This target was determined on the basis of in vitro susceptibility test results and was selected as the concentration that exceeded the minimal inhibitory concentration at which 90% of Candida spp. isolates were inhibited.

[5] = surgical ICU patients; 24-hour trough plasma concentration; cited from earlier work
Source text: The pharmacokinetics of caspofungin have been recently studied in a cohort of surgical ICU patients. […] Therefore, the authors concluded that a dose adjustment may be necessary in some ICU patients, based on the monitoring of plasma conc ...

CC[C@H](C)C[C@H](C)CCCCCCCCC(=O)N[C@H]1C[C@@H](O)[C@@H](NCCN)NC(=O)[C@@H]2[C@@H](O)CCN2C(=O)[C@H]([C@H](O)CCN)NC(=O)[C@H]([C@H](O)[C@@H](O)c2ccc(O)cc2)NC(=O)[C@@H]2C[C@@H](O)CN2C(=O)[C@H]([C@@H](C)O)NC1=O [caspofungin, caspofungin acetate]
Cmax (maximum caspofungin plasma concentration) ([1]; control group (n = 16), no haemorrhage, measured at end of infusion, HPLC with fluorescence detection, median): 33100 ng/mL
level at 4 h ([1]; plasma, control group (n = 16), median): 20700 ng/mL
AUC(0-t) ([1]; plasma, control group, median): 80800 ng·h/mL
level at 4 h ([1]; plasma, shock group (n = 12), median): 16100 ng/mL
AUC(0-t) ([1]; plasma, shock group, median): 60300 ng·h/mL
median AUC0→4 hours lower in the shock group than in the control group ([1]; shock vs control group): 25%
median maximal plasma concentration lower in the shock group than in the control group ([1]; shock vs control group): 35%
Cmax ([1]; plasma, shock group (n = 12), hypovolaemic shock then saline fluid loading, measured at end of infusion, HPLC with fluorescence detection, median, read-out: Cmax (maximum caspofungin plasma concentration)): 21600 ng/mL
Ct (lung caspofungin concentration at four hours) ([2]; control group (n = 16), 70 mg one-hour iv infusion, lung homogenate, four sampled lobes averaged, HPLC with fluorescence detection, median): 1.64 µg/g
Ratio = (Ct/Cp) × 100 (lung tissue-to-plasma ratio) ([2]; control group (n = 16), four hours after start of infusion, median): 7.28%
tissue level at time at 4 h ([2]; shock group (n = 12), 70 mg one-hour iv infusion, lung homogenate, four sampled lobes averaged, HPLC with fluorescence detection, median, read-out: Ct (lung caspofungin concentration at four hours)): 1220 ng/g
Ratio = (Ct/Cp) × 100 (lung tissue-to-plasma ratio) ([2]; shock group (n = 12), four hours after start of infusion, median): 7.76%
median lung caspofungin concentration lower in the shock group than in the control group ([2]; shock vs control group, four hours after start of infusion): 25%
Q (intercompartmental clearance) ([3]; control group (n = 16)): 4.23 L/h
V1 (central volume of distribution) ([3]; control group (n = 16)): 0.98 L
V2 (peripheral volume of distribution) ([3]; control group (n = 16)): 1.43 L
clearance ([3]; plasma, iv, 70 mg, control group (n = 16)): 4.83 mL/min
clearance ([3]; plasma, iv, 70 mg, shock group (n = 12)): 3.5 mL/min
Q (intercompartmental clearance) ([3]; shock group (n = 12)): 8.16* L/hour
V1 (central volume of distribution) ([3]; shock group (n = 12)): 0.96 L
V2 (peripheral volume of distribution) ([3]; shock group (n = 12)): 2.8* L
Vd ([3]; plasma, iv, 70 mg, shock group (n = 12), calculated as V1 + V2, read-out: Vd (total apparent volume of distribution)): 3.9 L
concentration at 24 hours (trough concentration) ([4]; mean (95% confidence interval, 1.18 to 1.71)): 1420 ng/mL
mean plasma Cmax ([4]; mean (95% confidence interval, 10.87 to 13.33)): 12040 ng/mL
patients in whom the trough concentration at day 2 of treatment exceeded 1.0 μg/mL [5]: 75%

Source: paper PMC3334764, “Effect of fluid loading during hypovolaemic shock on caspofungin pharmacokinetic parameters in pig” (Critical Care, 2011)
